Assay results: patent US20170182088A1, “METHOD AND APPARATUS FOR ADMINISTERING NITRIC OXIDE WITH SUPPLEMENTAL DRUGS” (GENO LLC, priority 2015, published 2017)

Columns and labels:
[1] = tested on: PMN (Neutrophil); settings: cited from earlier work
[2] = molecular target: T1, TRPM2 (Mus musculus, UniProt Q91YD4); settings: responses comparable to fMLP-stimulated TRPM2 KO PMN; cited from earlier work
T1 construct: endogenous in cells; host or cells: PMN (neutrophils), fMLP-stimulated; work retold from a cited abstract (J. Immunol. 2010, 184)

[3] = molecular target: T2, Nox4 (Homo sapiens, UniProt Q9NPH5); settings: cited from earlier work
T2 construct: endogenous in cells; host or cells: pulmonary vascular wall cells under hypoxia
T2 sequence (Q9NPH5 1-578): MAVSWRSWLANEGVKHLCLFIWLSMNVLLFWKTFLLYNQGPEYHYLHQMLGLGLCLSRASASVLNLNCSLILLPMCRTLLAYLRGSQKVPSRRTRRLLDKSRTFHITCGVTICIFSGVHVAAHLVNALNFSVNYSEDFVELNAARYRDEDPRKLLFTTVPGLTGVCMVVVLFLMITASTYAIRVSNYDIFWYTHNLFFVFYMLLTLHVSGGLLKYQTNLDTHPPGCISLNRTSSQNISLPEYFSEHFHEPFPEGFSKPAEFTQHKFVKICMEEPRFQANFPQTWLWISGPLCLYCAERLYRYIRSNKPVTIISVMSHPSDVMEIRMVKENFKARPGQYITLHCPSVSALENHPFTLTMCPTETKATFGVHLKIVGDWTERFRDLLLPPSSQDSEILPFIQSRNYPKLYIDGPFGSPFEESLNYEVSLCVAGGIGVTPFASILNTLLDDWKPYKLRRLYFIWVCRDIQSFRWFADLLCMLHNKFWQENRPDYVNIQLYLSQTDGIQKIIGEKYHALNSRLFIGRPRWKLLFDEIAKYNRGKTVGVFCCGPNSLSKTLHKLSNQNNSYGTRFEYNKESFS
T2 sequence (P13498 1-195 partner): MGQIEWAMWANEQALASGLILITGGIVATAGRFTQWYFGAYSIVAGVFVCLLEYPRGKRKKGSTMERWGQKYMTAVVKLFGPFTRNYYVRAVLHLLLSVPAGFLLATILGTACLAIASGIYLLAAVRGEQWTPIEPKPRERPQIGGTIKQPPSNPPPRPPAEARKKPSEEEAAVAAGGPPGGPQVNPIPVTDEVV

[4] = tested on: mice with intratracheal administration of LPS; assay: LPS-induced lung injury in mice (intratracheal LPS); format: in vivo; settings: for lung injury after intratracheal LPS: 2% H2 and/or 20 ppm NO for 3 hours starting at 5 minutes or 3 hours after LPS; for pulmonary inflammation and cell apoptosis: H2 and/or NO treatment
[5] = tested on: NF-κB; assay: LPS-induced pulmonary NF-κB activation; format: in vivo, mice; settings: H2 and/or NO treatment
[6] = tested on: polymicrobial sepsis; assay: Polymicrobial sepsis-induced lung injury; format: in vivo; settings: H2 and/or NO treatment
Text: However until applicants' discovery, there has not been a successful combination of hydrogen gas with breathing gas using the claimed apparatus and methods. Applicants have discovered that NO's effect as an antioxidant may be enhanced by eliminating highly reactive by-products of NO inhalation such as peroxynitrite, by adding H2 to inhaled NO gas.

[7] = tested on: brain injury; settings: inhaled, acute rat model; cited from earlier work
[8] = tested on: CTGF; settings: fibroblasts exposed to TGF-β; cited from earlier work
[9] = tested on: CTGF; settings: infusion, scleroderma patients; cited from earlier work
[10] = tested on: Angiotensin II; settings: cited from earlier work
[11] = tested on: rats; settings: inhaled; cited from earlier work
[12] = tested on: neonatal piglets; settings: short-term inhaled exposure; cited from earlier work
[13] = tested on: neonatal rats; settings: cited from earlier work

T1 sequence (Q91YD4 whole entry): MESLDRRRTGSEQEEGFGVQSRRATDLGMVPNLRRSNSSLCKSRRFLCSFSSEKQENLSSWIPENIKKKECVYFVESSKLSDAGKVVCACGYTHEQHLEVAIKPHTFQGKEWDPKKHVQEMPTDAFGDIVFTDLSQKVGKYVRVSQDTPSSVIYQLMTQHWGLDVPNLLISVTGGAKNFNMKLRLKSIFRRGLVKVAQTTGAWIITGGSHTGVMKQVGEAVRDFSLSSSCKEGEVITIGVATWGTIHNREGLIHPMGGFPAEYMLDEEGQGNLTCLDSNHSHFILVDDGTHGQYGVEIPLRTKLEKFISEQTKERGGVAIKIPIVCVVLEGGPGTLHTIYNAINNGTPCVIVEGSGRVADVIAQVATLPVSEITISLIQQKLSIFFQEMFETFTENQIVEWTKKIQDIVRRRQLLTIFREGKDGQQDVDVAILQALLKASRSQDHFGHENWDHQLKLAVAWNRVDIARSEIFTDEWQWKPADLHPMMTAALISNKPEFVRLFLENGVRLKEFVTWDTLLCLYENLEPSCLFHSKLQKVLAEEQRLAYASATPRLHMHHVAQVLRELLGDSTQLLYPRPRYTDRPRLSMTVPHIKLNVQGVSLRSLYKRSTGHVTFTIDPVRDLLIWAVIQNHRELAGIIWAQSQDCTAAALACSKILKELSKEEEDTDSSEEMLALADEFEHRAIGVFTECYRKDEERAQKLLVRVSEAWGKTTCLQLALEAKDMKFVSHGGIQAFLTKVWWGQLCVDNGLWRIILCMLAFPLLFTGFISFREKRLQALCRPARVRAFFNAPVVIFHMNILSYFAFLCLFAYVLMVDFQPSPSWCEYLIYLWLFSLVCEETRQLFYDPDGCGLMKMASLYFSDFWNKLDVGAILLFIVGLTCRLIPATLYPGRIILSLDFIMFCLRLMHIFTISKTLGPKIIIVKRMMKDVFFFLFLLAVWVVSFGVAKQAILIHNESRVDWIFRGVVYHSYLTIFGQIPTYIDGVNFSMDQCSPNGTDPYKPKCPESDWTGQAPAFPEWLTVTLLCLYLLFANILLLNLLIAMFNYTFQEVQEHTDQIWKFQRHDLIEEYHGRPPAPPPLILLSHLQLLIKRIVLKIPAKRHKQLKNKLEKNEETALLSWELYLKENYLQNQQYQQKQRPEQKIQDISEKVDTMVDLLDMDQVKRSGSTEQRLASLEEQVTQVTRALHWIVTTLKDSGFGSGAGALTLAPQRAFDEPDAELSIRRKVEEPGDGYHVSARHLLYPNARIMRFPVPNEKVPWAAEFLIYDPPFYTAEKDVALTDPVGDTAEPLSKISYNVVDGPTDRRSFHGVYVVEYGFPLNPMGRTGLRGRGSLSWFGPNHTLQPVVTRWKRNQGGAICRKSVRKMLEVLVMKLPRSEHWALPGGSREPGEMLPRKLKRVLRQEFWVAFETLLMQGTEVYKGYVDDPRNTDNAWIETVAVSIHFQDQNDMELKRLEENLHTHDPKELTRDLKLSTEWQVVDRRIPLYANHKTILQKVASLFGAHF

SMILES: Clc1ccc(COC(Cn2ccnc2)c2ccc(Cl)cc2Cl)cc1 (stereo not drawn) [Econazole]
- PMN directionality [1]: significantly inhibited
- Ca2+ influx [2]: blocked

SMILES: O=C(O)c1ccccc1Nc1cccc(C(F)(F)F)c1 [FA]
- Ca2+ influx [2]: blocked

SMILES: CN(C)c1cccc(-c2c3c(=O)n(-c4ccccc4Cl)[nH]c3cc(=O)n2C)c1 [GKT137831]
- hypoxia-induced pulmonary vascular cell proliferation [3]: attenuates

SMILES: [HH] [H2, hydrogen]
- lung injury after intratracheal LPS [4]: significantly improved
- pulmonary inflammation and cell apoptosis [4]: down-regulated
- LPS-induced pulmonary early and late NF-κB activation [5]: inhibited
- lung injury in polymicrobial sepsis [6]: significantly attenuated
- brain injury associated with focal ischemia-reperfusion [7]: markedly suppressed

SMILES: CC#CCC(C)[C@H](O)/C=C/[C@@H]1[C@H]2C/C(=C/CCCC(=O)O)C[C@H]2C[C@H]1O (stereo partly drawn) [Iloprost]
- increase in collagen synthesis [8]: blocks
- induction of CTGF [8]: blocks
- dermal CTGF levels [9]: marked decrease

SMILES: CC(=O)N[C@@H](CS)C(=O)O [N-acetylcysteine]
- Ang II-stimulated DNA synthesis, cell migration, pro-collagen α1(I) mRNA expression, secretion of TGF-β1 and inflammatory cytokines [10]: attenuated

SMILES: [N]=O [NO, nitric oxide]
- lung injury after intratracheal LPS [4]: significantly improved
- pulmonary inflammation and cell apoptosis [4]: down-regulated
- LPS-induced pulmonary early and late NF-κB activation [5]: inhibited
- lung injury in polymicrobial sepsis [6]: significantly attenuated
- survival in high O2 exposure [11]: increase
- lung collagen accumulation [12]: increases

SMILES: COC(=O)[C@@H](N)CCCNC(=N)N[N+](=O)[O-] [Nw-nitro-l-arginine methyl ester]
- survival on exposure to >95% O2 compared with control rats [13]: significantly fewer survived

SMILES: O=O [O2, oxygen]
- lung collagen accumulation [12]: increases

SMILES: Clc1ccccc1C(c1ccccc1)(c1ccccc1)n1ccnc1 [clotrimazole]
- PMN directionality [1]: significantly inhibited
- Ca2+ influx [2]: blocked

SMILES: c1ccc2c(c1)[I+]c1ccccc1-2 [diphenylene iodonium]
- Ang II-stimulated DNA synthesis, cell migration, pro-collagen α1(I) mRNA expression, secretion of TGF-β1 and inflammatory cytokines [10]: attenuated
